Several values for one entry are separate records, joined by “and”; a condition that tells them apart may be missing. Identical values can stand only once. Like-named read-outs stand apart in the source and are kept apart here.

For assay [1], the target named is T1, Arabidopsis thaliana AOX1A (rAtAOX1A) (Arabidopsis thaliana, UniProt Q39219). The assay can be described thus: biochemical. The conditions noted are these: rAtAOX1A IC50, membrane-bound protein, 300 μM NADH, MOPS buffer pH 7.5.
Assay [2] concerns the target T2, recombinant Trypanosoma brucei AOX (rTAO) (Trypanosoma brucei brucei, UniProt Q26710). The assay can be described thus: biochemical. The conditions noted are these: rTAO IC50, membrane-bound protein, 300 μM NADH, MOPS buffer pH 7.5.
For assay [3], the target named is T1, Arabidopsis thaliana AOX1A (rAtAOX1A). It is filed as biochemical. The note with it: for Fold change of oxygen consumption rate of rAtAOX1A vs control / Effect on oxygen consumption rate of rAtAOX1A (in words): 10 mM effector, membrane-bound protein, 1 mM NADH; for Fold change of oxygen consumption rate of rAtAOX1A vs control: 1 mM KCN (Figure 5C); for Effect on oxygen consumption rate of rAtAOX1A (in words): 1 mM KCN (Figure 5).

The target in assay [4] is T2, recombinant Trypanosoma brucei AOX (rTAO). It is filed as biochemical.
The target in assay [5] is T1, Arabidopsis thaliana AOX1A (rAtAOX1A). It is filed as biochemical. The protocol:
(§1) Kinetic analysis of the purified rTAO and rAtAOX1A was performed spectrophotometrically using a Cary 4000 UV spectrophotometer (Varian, UK Ltd, Surrey UK) with the packaged software. All assays were performed in 65 mM MOPS buffer pH 7.5 with different concentrations of quinol-1 as the substrate, measuring the conversion of Q1H2 (ubiquinol-1) to Q1 (ubiquinone-1) at 278 nm (ε = 15,000 M^−1 cm^−1). Q1 was reduced to Q1H2 prior to experimentation via sonication with zinc powder under an inert atmosphere for ~10 min, with the resultant zinc then being removed via centrifugation at 2,000 g.

The target in assay [6] is T2, recombinant Trypanosoma brucei AOX (rTAO). The assay can be described thus: Quinol kinetics of purified rTAO, Q1H2 oxidation at 278 nm. It is filed as biochemical. The conditions noted are these: MOPS pH 7.5. The protocol:
as §1

T2 sequence (Q26710 25-329): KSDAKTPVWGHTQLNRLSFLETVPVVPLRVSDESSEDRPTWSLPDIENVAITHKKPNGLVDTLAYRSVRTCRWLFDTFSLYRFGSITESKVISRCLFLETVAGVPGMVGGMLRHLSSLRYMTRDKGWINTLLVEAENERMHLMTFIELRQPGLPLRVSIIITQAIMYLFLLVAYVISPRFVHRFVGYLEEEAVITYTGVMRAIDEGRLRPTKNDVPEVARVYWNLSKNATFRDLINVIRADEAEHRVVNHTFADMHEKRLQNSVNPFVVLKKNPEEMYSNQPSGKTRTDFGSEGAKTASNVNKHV
T1 sequence (Q39219 63-354): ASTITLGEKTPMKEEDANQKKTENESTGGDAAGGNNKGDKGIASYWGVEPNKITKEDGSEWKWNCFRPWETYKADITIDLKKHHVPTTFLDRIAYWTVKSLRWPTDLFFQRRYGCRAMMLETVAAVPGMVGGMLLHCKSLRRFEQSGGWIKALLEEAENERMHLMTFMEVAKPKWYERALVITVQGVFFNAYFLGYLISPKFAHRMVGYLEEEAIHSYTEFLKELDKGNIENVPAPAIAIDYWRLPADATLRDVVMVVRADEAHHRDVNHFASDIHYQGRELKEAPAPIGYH

`CC(/C=C/[C@@]1(C)[C@H](C)CCC(=O)[C@@H]1C)=C\Cc1c(O)c(Cl)c(C)c(C=O)c1O` [AC, ascochlorin]: the half-inhibitory concentration (IC50) (in general, the concentration at which inhibition is half-maximal) is 14.7 nM in assay [1]; 3.8 nM and 3.7 nM in assay [2].
Regarding `Nc1ncnc2c1ncn2[C@@H]1O[C@H](COP(=O)(O)OP(=O)(O)O)[C@@H](O)[C@H]1O` [ADP, adenosine diphosphate], the “Fold change of oxygen consumption rate of rAtAOX1A vs control” value (“Fold change” below) in assay [3] is listed as 1.4 fold.
Regarding `C/C(=C\Cc1c(O)c(Cl)c(C)c(C=O)c1O)CC/C=C(\C)[C@@H]1CC(=O)C(C)(C)O1` [AF, ascofuranone], in assay [1], the IC50 was 6.21 nM.
On the same count and under the same terms, the value for `CC(C)=CCC/C(C)=C/Cc1c(O)c(Cl)c(C)c(C=O)c1O` [CB, colletochlorin B] was 2.82 nM and 2.8 nM.
Regarding `CC(C)=CCc1c(O)c(Cl)c(C)c(C=O)c1O` [CD, colletochlorin D], the IC50 was 5.76 nM in assay [1]; 3.73 nM and 3.8 nM in assay [2].
In the case of `Nc1nc2c(ncn2[C@@H]2O[C@H](COP(=O)(O)OP(=O)(O)O)[C@@H](O)[C@H]2O)c(=O)[nH]1` [GDP], the “Fold change” value in assay [3] is reported as 1.4 fold.
On to `O=O` [O2, oxygen], for which the Km (in general, the substrate concentration at which the rate is half of its maximum) worked out at 1.15 µM in assay [4] (membrane samples, 25°C, 1.25 mM NADH, without pyruvate, read-out: Km for O2, rTAO) and 2.41 µM in assay [3] (membrane samples, 25°C, 1.25 mM NADH, without pyruvate, read-out: Km for O2, rAtAOX1A).
Take `CCCCCCCCOC(=O)c1cc(O)c(O)c(O)c1` [OG, octylgallate]: the IC50 is 1580 nM in assay [1] and 417 nM in assay [2].
Consider `COc1c(O)c(C)c(CC=C(C)C)c(O)c1OC` [Q1H2, ubiquinol-1], for which the Michaelis-Menten constant (Km) in assay [5] (purified rAtAOX1A, without pyruvate, MOPS pH 7.5, read-out: Km for Q1H2, rAtAOX1A) is 26 µM; in assay [6], 451 µM.
In the case of `O=C(NO)c1ccccc1O` [SHAM, salicylic hydroxamic acid], the 50% inhibitory concentration (IC50) in assay [1] worked out at 33000 nM.
Take `CC(=O)O` [acetic acid]: the “Effect on oxygen consumption rate of rAtAOX1A (in words)” value (“Effect on oxygen consumption rate” below) in assay [3] was “no stimulation”.
For the compound `O=CC(=O)O` [glyoxylate], in assay [3], the “Fold change” value is on record as “more than 7 fold”.
As to `O=C(O)CC(=O)C(=O)O` [oxaloacetate], in assay [3], the “Effect on oxygen consumption rate” value is “dramatically promoted”.
With `CCC(=O)O` [propanoic acid], in assay [3], the “Effect on oxygen consumption rate” value is reported as “no stimulation”.
As to `CC(=O)C(=O)O` [pyruvate], in assay [4] (10 mM effector, membrane-bound protein), the “Activation of oxygen consumption rate of rTAO (in words)” value is on record as “but not that of rTAO”. Also, the “Change of Km for Q1H2 of rAtAOX1A” value in assay [5] (10 mM pyruvate during purification and in the assay, purified protein) is “remained unchanged”. The “Change of Vmax of rAtAOX1A” value in assay [5] (10 mM pyruvate during purification and in the assay, purified protein, Q1H2 substrate) is on record as “increased approximately five times”. In addition, the “Fold change” value in assay [3] was “more than 7 fold”. Also, the “Respiratory rate of rAtAOX1A with vs without pyruvate” value in assay [3] (10 mM pyruvate, membrane samples, 1.25 mM NADH (Figure 4)) was ~ 6 fold. Also, the “Change of Km for O2 of rAtAOX1A” value in assay [3] (10 mM pyruvate, membrane-bound protein (Figure 4)) is listed as “increased Km value for O2”.
Consider `O=C(O)CCC(=O)O` [succinate], for which the “Effect on oxygen consumption rate” value in assay [3] is “dramatically promoted”.

The values are drawn from PMC8569227 (Frontiers in Plant Science, 2021).
